Source: US20240409536A1, “COMPOUNDS AND METHODS FOR MODULATING SPLICING” (REMIX THERAPEUTICS INC., priority 2021, published 2024)

Assays:
HTT mRNA = assay: Splicing RT-qPCR assay, HTT canonical (CJ) and alternative (AJ) junction mRNA; type: cell-based; details: Homo sapiens, A673 or K562 cells, 24 hours; for IC50: decrease in canonical junction mRNA; for AC50: increase in alternative junction mRNA
Procedure, shortened: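 A673 (DMEM/10% FBS, plated 24 h before dosing) or K562 (IMDM/10% FBS) cells treated 24 h at 37 °C with 11-point 3-fold dilutions, top final 10 uM, DMSO ≤0.25%. Lysates analysed by one-step RT-qPCR for CJ and AJ isoforms, normalized to GAPDH/GUSB (K562) or PPIA (A673).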

Target C = assay: HiBiT protein abundance assay, Target C (K562 HiBiT knock-in cells); type: cell-based, human; details: 24 hours
Procedure, shortened: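 K562 knock-in cells (10000/well, IMDM+1% FBS) treated 24 h at 37 °C with 10-point 3-fold dilutions, top final 10 μM, DMSO ≤0.25%. HiBiT lytic luminescence read; response normalized to unmodified K562 and DMSO-treated controls. IC50 interpolated at 50% abundance by four-parameter logistic fit.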

HiBiT-tagged MYB protein = assay: HiBiT protein abundance assay, MYB (K562 HiBiT knock-in cells); type: cell-based, human; details: 24 hours
Procedure, shortened: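 K562 cells with endogenous HiBiT knock-in tag, 10-point 3-fold dilutions (top 10 μM final, ≤0.25% DMSO), 24 h at 37 °C. Lytic Nano-Glo HiBiT luminescence, normalized to DMSO and unmodified K562 baselines; IC50 is concentration giving 50% protein abundance from four-parameter fit.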

K562 cells = assay: Cell Titer Glo 2.0 cell viability assay in K562 cells; details: 72 hours
Procedure: Compounds described herein were screened for toxicity in K562 (human chronic myelogenous leukemia) and SH-SY5Y (human neuroblastoma) cells using a Cell Titer Glo 2.0 assay.
Cells were plated at 500 cells/well (K562 cells) in 45 μL of IMDM supplemented with 10% FBS in a 384-well opaque plate. Wells containing only medium were used as a blank control. Test compounds (e.g., compounds of Formula (I), (II), or (III)) were first serially diluted in DMSO then diluted 1:100 with IMDM+10% FBS. The final concentration of DMSO was 0.1% in each well. The cells were incubated for 72 hours at 37° C. and 5% CO2 before assaying with Cell Titer Glo 2.0 reagent.

IC50 (HTT mRNA)	IC50 (Target C)	IC50 (HiBiT-tagged MYB protein)	Compound	AC50 (HTT mRNA)	Viability (K562 cells)
> 10 µM	> 10 µM	0.1 to 1 µM	Cc1cn2cc(NC(=O)c3ccc(N4CCN[C@@H](C(C)C)C4)c4nccnc34)cc(F)c2n1 [Compound 250, N-{8-fluoro-2-methylimidazo[1,2-a]pyridin-6-yl}-8-[(3S)-3-isopropylpiperazin-1-yl]quinoxaline-5-carboxamide]	> 10 µM	B (B represents 100-1000 nM)
1 to 10 µM	1 to 10 µM	< 0.1 µM	COc1ccc2c(N3C[C@@H](C)N[C@@H](C)C3)ccc(C(=O)Nc3cc(F)c4nc(C)cn4c3)c2n1 [Compound 268, 5-[(3R,5S)-3,5-dimethylpiperazin-1-yl]-N-{8-fluoro-2-methylimidazo[1,2-a]pyridin-6-yl}-2-methoxyquinoline-8-carboxamide]	1 to 10 µM	B (B represents 100-1000 nM)
> 10 µM	> 10 µM	> 10 µM	Cn1cc2ccc(NC(=O)c3ccc(N4CCNCC4)c4ccnnc34)cc2n1 [Compound 115]	> 10 µM	D (D represents greater than 10 μM in K562 cells)
1 to 10 µM	1 to 10 µM	< 0.1 µM	Cc1cn2cc(NC(=O)c3ccc(N4CCNC(C)(CO)C4)c4nccnc34)cc(F)c2n1 (centres unmarked) [Compound 368]	1 to 10 µM	B (B represents 100-1000 nM)
1 to 10 µM	1 to 10 µM	1 to 10 µM	Cc1cn2cc(NC(=O)c3ccc(N4CCC(N)(CF)CC4)c4nccnc34)cc(F)c2n1 [Compound 356]	> 10 µM	C (C represents 1000-9999 nM)
1 to 10 µM	1 to 10 µM	1 to 10 µM	Cc1cn2cc(NC(=O)c3ccc(N4CCN[C@@H](CF)C4)c4nccnc34)cc(F)c2n1 [Compound 367]	1 to 10 µM	C (C represents 1000-9999 nM)
> 10 µM	1 to 10 µM	0.1 to 1 µM	Cc1cn2cc(NC(=O)c3ccc(N4CC[C@@H](N)C4)c4nccnc34)cc(F)c2n1 [Compound 315]	1 to 10 µM	B (B represents 100-1000 nM)
0.1 to 1 µM	1 to 10 µM	< 0.1 µM	Cc1cn2cc(NC(=O)c3ccc(N4CCC(NC5CC5)CC4)c4ccnnc34)cc(F)c2n1 [Compound 259, 5-[4-(cyclopropylamino)piperidin-1-yl]-N-{8-fluoro-2-methylimidazo[1,2-a]pyridin-6-yl} cinnoline-8-carboxamide]	0.1 to 1 µM	A (A represents <100 nM)
1 to 10 µM	1 to 10 µM	0.1 to 1 µM	Cc1cn2cc(NC(=O)c3ccc(N4CCNCC4)c4ccnnc34)c(C)cc2n1 [Compound 119]	1 to 10 µM	B (B represents 100-1000 nM)
1 to 10 µM	1 to 10 µM	< 0.1 µM	Cc1cn2cc(NC(=O)c3c(F)cc(N4C[C@@H](C)N[C@@H](C)C4)c4nccnc34)cc(F)c2n1 [Compound 261, cis-8-[(3R,5S)-3,5-dimethylpiperazin-1-yl]-6-fluoro-N-{8-fluoro-2-methylimidazo[1,2-a]pyridin-6-yl}quinoxaline-5-carboxamide]	1 to 10 µM	B (B represents 100-1000 nM)
> 10 µM	> 10 µM	1 to 10 µM	Cc1c(O)c(NC(=O)c2ccc(N3C[C@@H](C)N[C@@H](C)C3)c3nccnc23)cc2cn(C)nc12 [Compound 310]	> 10 µM	C (C represents 1000-9999 nM)
0.1 to 1 µM	0.1 to 1 µM	< 0.1 µM	Cc1nc2c(F)cc(NC(=O)c3ccc(N4CCNCC4)c4ccnnc34)cc2s1 [Compound 118]	0.1 to 1 µM	A (A represents <100 nM)
1 to 10 µM	1 to 10 µM	1 to 10 µM	C[C@@H]1CN(c2ccc(C(=O)Nc3cc(F)c4cnccc4c3)c3nccnc23)C[C@H](C)N1 [Compound 343]	1 to 10 µM	C (C represents 1000-9999 nM)
1 to 10 µM	1 to 10 µM	< 0.1 µM	Cc1cn2cc(NC(=O)c3ccc(N4C[C@@H](C)N[C@@H](C)C4)c4nccnc34)nc(C)c2n1 [Compound 288]	1 to 10 µM	C (C represents 1000-9999 nM)
1 to 10 µM	> 10 µM	0.1 to 1 µM	Cc1cn2cc(NC(=O)c3ccc([C@@]45CCNCC4C5)c4nccnc34)cc(F)c2n1 (stereo in doubt) [Compound 248, 8-{3-azabicyclo[4.1.0]heptan-6-yl}-N-{8-fluoro-2-methylimidazo[1,2-a]pyridin-6-yl}quinoxaline-5-carboxamide 2,2,2-trifluoroacetate]	> 10 µM	B (B represents 100-1000 nM)
1 to 10 µM	1 to 10 µM	0.1 to 1 µM	Cc1cn2cc(NC(=O)c3ccc(N4CCN[C@H](CF)C4)c4nccnc34)cc(F)c2n1 [Compound 366]	1 to 10 µM	C (C represents 1000-9999 nM)
> 10 µM	> 10 µM	> 10 µM	Cn1cc2c(F)cc(NC(=O)c3ccc(N4CCNCC4)c4ccnnc34)cc2n1 [Compound 116]	> 10 µM	C (C represents 1000-9999 nM)
> 10 µM	> 10 µM	> 10 µM	C[C@@H]1CN(c2ccc(C(=O)Nc3cc(F)c4nc(O)cn4c3)c3nccnc23)C[C@H](C)N1 [Compound 360]	> 10 µM	D (D represents greater than 10 μM in K562 cells)
1 to 10 µM	1 to 10 µM	1 to 10 µM	Cc1cn2cc(NC(=O)c3ccc(N4CCN5CCOC[C@H]5C4)c4nccnc34)cc(F)c2n1 [Compound 256, (R)—N-(8-fluoro-2-methylimidazo[1,2-a]pyridin-6-yl)-8-(hexahydropyrazino[2,1-c][1,4]oxazin-8(1H)-yl)quinoxaline-5-carboxamide]	1 to 10 µM	C (C represents 1000-9999 nM)
